Test results from PMC11002876, “KcsA-Kv1.x chimeras with complete ligand-binding sites provide improved predictivity for screening selective Kv1.x blockers” (The Journal of Biological Chemistry, 2024).
Where a SMILES comes first, the peptide text is derived from it.

tested on: human Kv1.3 channel (hKv1.3); assay type: cell-based; details: native peptides at 0.1 nM; human lymphocytes; Figs. 6A, S1
Protocol: Human Kv1.3 currents were recorded from activated peripheral blood mononuclear cells (see below) 3 to 4 days after activation. Heparinized human peripheral venous blood was obtained from healthy volunteers. Mononuclear cells were separated through Histopaque-1077 density gradient centrifugation. Collected cells were washed twice with Ca^2+- and Mg^2+-free Hanks’ solution containing 25 mM Hepes buffer, pH 7.4. Cells were cultured for 3 to 4 days in 24-well culture plates in a 5% CO2 incubator at 37 °C, in RPMI 1640 medium supplemented with 10% fetal calf serum (Sigma-Aldrich), 100 μg/ml penicillin, 100 μg/ml streptomycin, and 2 mM L-glutamine (density, 0.5 × 10^6 cells per ml). Phytohemagglutinin A (Sigma-Aldrich) was added to the medium at 10 μg/ml to amplify the Kv1.3 expression. Cells were washed gently twice with 2 ml of ECS for the patch-clamp experiments.
Conventional whole-cell patch-clamp electrophysiology was used to record ionic currents. Micropipettes were pulled from GC150F-7.5 borosilicate capillaries (Harvard Apparatus) with tip diameters between 0.5 and 1 μm resulting in a tip resistance of 2 to 8 MΩ in the extracellular (bath) solution. All measurements were carried out by using Axopatch 200B amplifier connected to a personal computer using Axon Digidata 1550A data acquisition hardware and Pclamp10.7 software (https://support.moleculardevices.com/s/article/Axon-pCLAMP-10-Electrophysiology-Data-Acquisition-Analysis-Software-Download-Page). The holding potential was −120 mV. Records were discarded when leak at the holding potential was >10% of peak current at the test potential. Experiments were performed at room temperature (20–24 °C). Before analysis, whole-cell current traces were corrected for ohmic leakage and digitally filtered with a three-point boxcar smoothing filter.
Solutions: all salts and components of the solutions were purchased from Sigma Aldrich. […]
Native peptides, phage-expressed peptides, and positive controls used for them were dissolved in ECS supplemented with 0.1 mg/ml bovine serum albumin (BSA; Sigma-Aldrich Hungary). Bath perfusion around the measured cell with different extracellular solutions was achieved using a gravity flow micro perfusion system using a rate of 0.5 ml/min. […]
Voltage protocols: For measurement of Kv1.1 to 1.3 currents, voltage steps to +50 mV were applied from a holding potential of −120 mV and the peak current was measured every 15 s. […] The remaining current fraction at a given molar concentration was calculated as I/I0, where I0 is the peak current in the absence and I is the peak current at equilibrium block or […] after ∼2 min perfusion by the investigated peptide/phage.

SMILES	rank order of blocking of native Kv1.3
CC[C@H](C)[C@H](NC(=O)[C@H](CCC(=O)O)NC(=O)[C@@H](NC(=O)CN)C(C)C)C(=O)N[C@@H](CC(N)=O)C(=O)N[C@H](C(=O)N[C@@H](CCCCN)C(=O)N[C@H]1CSSC[C@@H]2NC(=O)[C@H](CCCCN)NC(=O)CNC(=O)[C@H](Cc3ccccc3)NC(=O)[C@H](CCCNC(=N)N)NC(=O)[C@H](CCSC)NC(=O)CNC(=O)[C@H](C)NC(=O)[C@H](CC(=O)O)NC(=O)[C@H](CCCCN)NC(=O)[C@@H]3CSSC[C@@H](C(=O)N[C@H](C(=O)N4CCC[C@H]4C(=O)N[C@@H](CCCCN)C(=O)O)[C@@H](C)O)NC(=O)[C@H](Cc4c[nH]cn4)NC(=O)[C@H](CSSC[C@H](NC(=O)[C@H](CCC(N)=O)NC(=O)[C@@H]4CCCN4C(=O)[C@H](CO)NC(=O)CNC(=O)[C@H](CO)NC1=O)C(=O)N[C@@H](CC(C)C)C(=O)N[C@@H](CCCCN)C(=O)N1CCC[C@H]1C(=O)N3)NC(=O)[C@H](CCCCN)NC(=O)[C@H](CCCNC(=N)N)NC(=O)[C@H](CC(N)=O)NC(=O)[C@H](CCSC)NC2=O)C(C)C [KTX1, Kaliotoxin-1]	Vm24 > HgTX1 > KTX1
CC[C@H](C)[C@@H]1NC(=O)CNC(=O)[C@H](Cc2ccccc2)NC(=O)[C@H](CCC(N)=O)NC(=O)[C@H](C)NC(=O)[C@H](CCCCN)NC(=O)[C@@H]2CSSC[C@@H](C(=O)N[C@@H](Cc3ccc(O)cc3)C(=O)N3CCC[C@H]3C(=O)N[C@@H](Cc3c[nH]cn3)C(=O)O)NC(=O)[C@H](CCCCN)NC(=O)[C@@H]3CSSC[C@H](NC(=O)[C@H](CCC(N)=O)NC(=O)[C@H](CCCCN)NC(=O)[C@@H]4CCCN4C(=O)[C@H](CO)NC(=O)[C@H]([C@@H](C)O)NC(=O)[C@@H](NC(=O)[C@H](CCCCN)NC(=O)[C@@H](NC(=O)[C@H](CC(=O)O)NC(=O)[C@@H](NC(=O)[C@@H](NC(=O)[C@@H](N)[C@@H](C)O)C(C)C)[C@@H](C)CC)C(C)C)CSSC[C@H](NC(=O)[C@H](CCCCN)NC(=O)[C@H](C)NC(=O)CNC(=O)[C@H](C)NC(=O)[C@H](CCCNC(=N)N)NC1=O)C(=O)N[C@@H](CCSC)C(=O)N[C@@H](CC(N)=O)C(=O)NCC(=O)N[C@@H](CCCCN)C(=O)N3)C(=O)N[C@@H](CC(C)C)C(=O)N1CCC[C@H]1C(=O)N1CCC[C@H]1C(=O)N2 [HgTx1, Hongotoxin-1] (HELM PEPTIDE1{T.V.I.D.V.K.C.T.S.P.K.Q.C.L.P.P.C.K.A.Q.F.G.I.R.A.G.A.K.C.M.N.G.K.C.K.C.Y.P.H}$PEPTIDE1,PEPTIDE1,7:R3-29:R3|PEPTIDE1,PEPTIDE1,13:R3-34:R3|PEPTIDE1,PEPTIDE1,17:R3-36:R3$$$V2.0; N-terminus and C-terminus assumed)	Vm24 > HgTX1 > KTX1
CC[C@H](C)[C@H](NC(=O)[C@H](C)NC(=O)[C@H](C)NC(=O)[C@H](C)N)C(=O)N[C@@H](CO)C(=O)N[C@H]1CSSC[C@@H]2NC(=O)[C@H](CCCCN)NC(=O)CNC(=O)[C@H](CC(N)=O)NC(=O)[C@H](CCCCN)NC(=O)[C@@H]3CSSC[C@@H](C(N)=O)NC(=O)[C@H](Cc4ccc(O)cc4)NC(=O)[C@H](Cc4ccc(O)cc4)NC(=O)[C@@H]4CSSC[C@H](NC(=O)[C@H](CCCCN)NC(=O)[C@@H]5CCCN5C(=O)[C@@H]5CCCN5C(=O)[C@H](CSSC[C@H](NC(=O)[C@H](CCCCN)NC(=O)[C@H](CCCNC(=N)N)NC(=O)[C@H](CC(N)=O)NC(=O)[C@H](CCSC)NC2=O)C(=O)N[C@@H](CCCCN)C(=O)N4)NC(=O)[C@H](CCC(=O)O)NC(=O)[C@@H]2CCCN2C(=O)[C@H](CO)NC(=O)CNC(=O)[C@H](C(C)C)NC1=O)C(=O)N[C@@H](CCCNC(=N)N)C(=O)N[C@@H](C)C(=O)N[C@@H](CCC(N)=O)C(=O)NCC(=O)N3 [Vm24, Vm24 toxin]	Vm24 > HgTX1 > KTX1
